# Test results reported in patent publication US4935435A, “Use of tetrazole derivatives” (May & Baker Limited, priority 1988, dated 1990).
# Columns and labels:
# [1] = test system: collagen-induced arthritis in rats; experiment: X-radiography of hind paws on day 71, collagen-induced arthritis in rats; assay type: in vivo; details: rat hind paws; 71st day; oral 30 mg/kg per day; versus control
# Description: On the 71st day the hind paws were examined by X-radiography. Joint damage was assessed according to five parameters and scored on an arbitrary scale of 0 to 5.
# [2] = test system: collagen-induced arthritis in rats; experiment: collagen-induced arthritis in rats (joint size by electronic calipers, erosion and inflammation); assay type: in vivo, rat
# Description: Joint sizes were measured periodically, for 70 days, by means of electronic calipers placed across the tibio-tarsal junction.
smiles,measurement,setting,value
"CC(=O)c1cc(F)cc(NC(=O)c2nnn[nH]2)c1O [compound A, 3'-Acetyl-5'-fluoro-2'-hydroxytetrazole-5-carboxanilide]","joint damage by X-radiography, five parameters scored on an arbitrary scale of 0 to 5",[1],For each of the five parameters the joints of the control animals were more severely damaged than those of the treated animals
same,mean joint diameter (tibio-tarsal junction) over the 70 days,"[2]; oral 30 mg/kg per day, 70 days, control animals increased from 7.6 mm to 8.1 mm",7.7 mm
same,erosion and inflammation caused by collagen-induced arthritis,"[2]; oral, 30 mg/kg body weight per day, compared with control animals",inhibited erosion and inflammation
